From PubChem BioAssay (NCI) come the findings set out here.

What all share (test): growth of human tumour cells (NCI), 48 h
Experiment [1] concerns HL-60(TB) leukemia.
For experiment [2], the system named is HOP-62 NSCLC.
Experiment [3] has as its system K-562 leukemia.
Experiment [4] concerns MCF7 breast.
Experiment [5] concerns NCI-H23 lung.
Experiment [6] relates to RXF 393 renal.
Experiment [7] relates to SK-MEL-5 melanoma.
Experiment [8] relates to SN12C renal.
For experiment [9], the system named is SNB-19 CNS.
Experiment [10] deals with T-47D breast.

SMILES strings stand for the structures. Values joined by “and” are separate entries in the source; they are usually repeats but may differ in a detail not shown here. Identical values can stand only once.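 Assay format: 96-well plates, 48-hour exposure. GI50 marks 50% less growth. TGI denotes the concentration required for complete inhibition of growth.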 A value given as a limit tells only on which side of the number the result lay.

In the case of `Cc1ncc(C(=O)Nc2ccc(CN3CCN(C)CC3)c(C(F)(F)F)c2)cc1C#Cc1c(N)ncc2ccccc12`, the GI50 in experiment [1] is 0.247 µM; in experiment [2] it was 0.524 µM; in experiment [3] it was 0.00332 µM; in [4], 0.378 µM; in experiment [5], 0.439 µM; in experiment [6] it was 0.465 µM. Also, the GI50 was 0.446 µM in [7], 0.319 µM in experiment [8], 0.591 µM in experiment [9] and 1.96 µM in experiment [10]. Moreover, the TGI in experiment [1] turned out to be 0.817 µM; in experiment [2], 1.4 µM; in [3] it was 0.453 µM; in experiment [4], 0.913 µM; in [5], 1.02 µM; in [6], 0.915 µM. Moreover, the TGI in experiment [7] stood at 0.878 µM; in [8], 0.783 µM; in experiment [9], 1.06 µM; in experiment [10], 7.7 µM.
In the case of `NS(=O)(=O)c1ccc(-n2ncc3c(Nc4ccccc4)ncnc32)cc1`, the GI50 in experiment [1] is 6.59 µM; in experiment [2] it was 16.7 µM; in experiment [3], 4.44 µM; in experiment [4], 49.2 µM; in [5], 1.37 µM; in [6] it was 29.6 µM. Also, the GI50 in experiment [7] was 24.4 µM; in experiment [8] it was over 100 µM; in [9] it was over 100 µM; in experiment [10], 24.2 µM. Moreover, the TGI is 92.7 µM in experiment [1]; 48.5 µM in experiment [2]; 37.7 µM in experiment [3]; over 100 µM in experiment [4]; 23.8 µM in experiment [5]; over 100 µM in [6]. Besides, the TGI in experiment [7], in [8], in experiment [9] and in experiment [10] was over 100 µM each time.
Take `COC(=O)[C@]12CC[C@@H](C)[C@H](C)[C@@H]1C1=CC[C@@H]3[C@@]4(C)C(C=O)=C[C@@](C)(COS(C)(=O)=O)C4[C@H](O)C[C@@]3(C)[C@]1(C)CC2` (some centres undefined): the GI50 was 1.17 µM in experiment [1]; 2.23 µM in [2]; 0.797 µM in experiment [3]; 1.19 µM in [4]; 1.68 µM in experiment [5]; 1.53 µM in experiment [6]. Further, the GI50 was 1.7 µM in experiment [7], 2.28 µM in [8], 2.47 µM in experiment [9] and 1.8 µM in experiment [10]. For the same molecule, the TGI in experiment [1] came out at 4.24 µM; in experiment [2], 4.45 µM; in experiment [3], 6.28 µM; in [4] it was 3.63 µM; in [5], 3.63 µM; in experiment [6], 2.9 µM. In addition, the TGI is 3.26 µM in experiment [7], 6.39 µM in experiment [8], 8.44 µM in experiment [9] and 5.93 µM in experiment [10].
Turning to `Cn1cnc2c(F)c(Nc3ccc(Br)cc3F)c(C(=O)NOCCO)cc21`, the GI50 in experiment [1] is 0.0193 µM and 0.0192 µM; in [3] it was 1.33 µM and 10.8 µM; in experiment [4], over 100 µM; in experiment [5] it was 0.227 µM and 0.215 µM; in [6], 0.455 µM and 4.39 µM; in [7] it was 0.787 µM and 0.414 µM. The GI50 is 13.7 µM in experiment [8], 4.37 µM in experiment [9] and over 100 µM in experiment [10]. For the same molecule, the TGI was over 100 µM in experiment [1]; over 100 µM in experiment [2]; over 100 µM in experiment [3]; over 100 µM in experiment [4]; over 100 µM in experiment [5]; over 96.2 µM in [6]. Also, the TGI in [7], in experiment [8], in [9] and in experiment [10] was over 100 µM throughout.
In the case of `CCOC(=O)C(C(=O)OCC)C(=O)c1ccccc1C(=O)c1ccccc1`, the TGI in [1], in experiment [2], in experiment [3], in experiment [4], in [5] and in experiment [6] was over 100 µM throughout. The TGI in experiment [7], in experiment [8], in experiment [9] and in [10] was over 100 µM throughout.
Regarding `COc1ccc(Cn2cc3c(c2-c2cc(OC)c(OC)c(OC)c2)CCc2cnoc2-3)cc1N`, the GI50 in experiment [1] was 0.0268 µM; in [2], 0.0521 µM; in [3], 0.0351 µM; in experiment [4], 0.036 µM; in [5], 0.0507 µM; in experiment [6], 0.0319 µM. Moreover, the GI50 is 0.0325 µM in experiment [7], 0.0795 µM in [8], 0.0621 µM in experiment [9] and 0.034 µM in experiment [10]. The TGI in experiment [1] is 0.184 µM; in experiment [2], over 100 µM; in experiment [3], over 100 µM; in experiment [4] it was over 40 µM; in experiment [5], over 100 µM; in experiment [6], over 100 µM. The TGI in [7] was 1.24 µM; in experiment [8] it was over 100 µM; in [9], over 100 µM; in experiment [10], over 100 µM.
With `COc1ccc(-c2cc(-c3cccc(NS(C)(=O)=O)c3)nc(N)c2C#N)cc1`, the GI50 was 0.0637 µM in experiment [1]; 0.0689 µM in experiment [2]; 0.0541 µM in [3]; 0.348 µM in [4]; 0.256 µM in experiment [5]; 0.0506 µM in experiment [6]. The GI50 was 0.113 µM in [7], 0.298 µM in experiment [8], 0.158 µM in experiment [9] and 0.362 µM in experiment [10]. The TGI in experiment [1] is 1.26 µM; in [2], 34.6 µM; in experiment [3], over 100 µM; in experiment [4] it was 25.3 µM; in experiment [5], 39.8 µM; in [6], 0.44 µM. Besides, the TGI in experiment [7] is 4.92 µM; in experiment [8], 25.1 µM; in experiment [9] it was over 84 µM; in experiment [10], 13.7 µM.
For the molecule `COc1c(Cl)ccc2c(-c3nc4cc(Cl)c(F)cc4s3)cc(=O)oc12`, the GI50 in [1] was 2.44 µM; in experiment [2] it was 6.26 µM; in experiment [3] it was 5.42 µM; in experiment [4], 9.13 µM; in [5], 3.25 µM; in experiment [6], 5.83 µM. In addition, the GI50 in experiment [7] was 26.5 µM; in [8], 23.2 µM; in experiment [9], over 43.4 µM; in experiment [10] it was 13 µM. For the same molecule, the TGI is 5.39 µM in experiment [1]; 20.7 µM in [2]; over 100 µM in experiment [3]; over 79 µM in [4]; over 73.7 µM in experiment [5]; 17.7 µM in experiment [6]. Moreover, the TGI in experiment [7] is over 88.4 µM; in [8] it was over 90.3 µM; in experiment [9] it was over 72.3 µM; in [10], 45.5 µM.
Consider `CN(C)CCSCCO`, for which the TGI in [1], in experiment [2], in [3], in experiment [4], in experiment [5] and in experiment [6] was over 100 µM in each case. The TGI in experiment [7], in experiment [8], in experiment [9] and in experiment [10] was over 100 µM each time.
Regarding `CN(CC(=O)O)Cc1oc(CO)cc(=O)c1O`, the TGI is 76.5 µM in experiment [1]; over 100 µM in experiment [2]; over 100 µM in experiment [3]; over 100 µM in experiment [4]; over 100 µM in experiment [5]; over 100 µM in [6]. Moreover, the TGI in [7], in experiment [8], in experiment [9] and in experiment [10] was over 100 µM throughout.
Consider `Clc1ccc(CNc2nccc(-c3cnn4ncccc34)n2)cc1`, for which the GI50 is 8.69 µM in experiment [1]; 7.59 µM in experiment [2]; 10.6 µM in experiment [3]; 5.91 µM in experiment [4]; 6.74 µM in experiment [5]; 4.88 µM in [6]. Moreover, the GI50 was 5.4 µM in [7], 7.54 µM in [8], 9.73 µM in experiment [9] and 5.26 µM in experiment [10]. The TGI in experiment [1] is over 22.3 µM; in experiment [2] it was over 25 µM; in experiment [3] it was over 25 µM; in experiment [4], over 25 µM; in experiment [5] it was 22.8 µM; in experiment [6], 10.2 µM. Moreover, the TGI in experiment [7], in experiment [8], in experiment [9] and in [10] was over 25 µM each time.
Turning to `O=C(CCSc1ccnc2c(C(F)(F)F)cccc12)N/N=C/c1cc(Cl)c(Cl)cc1Cl`, the GI50 in [1] is 32.2 µM; in [2] it was 19.8 µM; in experiment [3], 39.6 µM; in experiment [4], 22.9 µM; in experiment [5] it was 24.1 µM; in experiment [6] it was 20.9 µM. The GI50 in [7] is 19.3 µM; in [8] it was 18 µM; in experiment [9], 21.9 µM; in experiment [10] it was 22 µM. Further, the TGI in experiment [1] was 58 µM; in experiment [2], 35.8 µM; in [3] it was over 100 µM; in [4], 44 µM; in experiment [5], 52.1 µM; in [6] it was 52.3 µM. For the same molecule, the TGI in experiment [7] came to 34.9 µM; in experiment [8], 34.1 µM; in experiment [9] it was 48.5 µM; in experiment [10], 59.9 µM.
